# Experimental data published in patent US10907197B2, “Probes for imaging huntingtin protein” (CHDI Foundation, Inc., priority 2014, dated 2021).
# Target: T1, Q46 protein aggregates (Homo sapiens, UniProt P42858, INS38QQQQQQQQQQQQQQQQQQQQQQQQQ)
# T1 construct: 33 μM GST-Q46 was incubated with 150 μg/mL thrombin in assay buffer (150 mM NaCl, 50 mM Tris pH 8.0) and 2 mM CaCl2 for 16 hr at 37° C; fused on or other part: GST at the N-terminus
# Test: Q46 Radioligand Binding Assay (RBA)
# Conditions: displacement of 10 nM [3H3]MK-3328 from 5 μM Q46 protein aggregates, 60 min at 37° C.
# Procedure: Q46 Radioligand Binding Assay
# For radioligand binding assays (RBA) GST-Q46 protein was generated based on a previous publication (Scherzinger et al. Cell, Vol. 90, 549-558, Aug. 8, 1997). For experiments 33 μM GST-Q46 was incubated with 150 μg/mL thrombin in assay buffer (150 mM NaCl, 50 mM Tris pH 8.0) and 2 mM CaCl2 for 16 hr at 37° C. Aggregated Q46 was pelleted by centrifugation for 5 min at 13,000 rpm in a bench top centrifuge and re-dissolved in the same volume of assay buffer. Test compounds were prepared by titration in DMSO at 11 concentrations from 33 μM to 1 nM. For the RBA, Q46 protein aggregates and test compounds were pre-incubated in assay buffer for 20 min at room temperature, in 140 μL/well in a 96-well plate (pp, round bottom). Then, ligand was added in 10 μL/well and incubated for 60 min at 37° C. Final assay concentrations were 1 μM to 30 pM test compound, 5 μM Q46 protein (equivalent monomer concentration) and 10 nM ligand [^3H3]MK-3328 (Harrision et al., ACS Med. Chem. Lett., 2 (2011), pp 498-502). Samples were transferred onto GF/B filter plates and washed 2× with 200 μL PBS using a Filtermate Harvester. After drying filter plates for 1 hr at 37° C., the back of the plates was sealed with foil and 30 μL/well scintillation fluid (Packard MicroScint 40) was added, incubated for incubated for 15 min in the dark and counted in a TopCount reader. […] IC50 values were determined with a sigmoidal inhibition model with four variables (top, bottom, slope, IC50) in a global fit using the normalized replicate data.
# T1 sequence (P42858 with tags, fused parts or gaps with the stated changes): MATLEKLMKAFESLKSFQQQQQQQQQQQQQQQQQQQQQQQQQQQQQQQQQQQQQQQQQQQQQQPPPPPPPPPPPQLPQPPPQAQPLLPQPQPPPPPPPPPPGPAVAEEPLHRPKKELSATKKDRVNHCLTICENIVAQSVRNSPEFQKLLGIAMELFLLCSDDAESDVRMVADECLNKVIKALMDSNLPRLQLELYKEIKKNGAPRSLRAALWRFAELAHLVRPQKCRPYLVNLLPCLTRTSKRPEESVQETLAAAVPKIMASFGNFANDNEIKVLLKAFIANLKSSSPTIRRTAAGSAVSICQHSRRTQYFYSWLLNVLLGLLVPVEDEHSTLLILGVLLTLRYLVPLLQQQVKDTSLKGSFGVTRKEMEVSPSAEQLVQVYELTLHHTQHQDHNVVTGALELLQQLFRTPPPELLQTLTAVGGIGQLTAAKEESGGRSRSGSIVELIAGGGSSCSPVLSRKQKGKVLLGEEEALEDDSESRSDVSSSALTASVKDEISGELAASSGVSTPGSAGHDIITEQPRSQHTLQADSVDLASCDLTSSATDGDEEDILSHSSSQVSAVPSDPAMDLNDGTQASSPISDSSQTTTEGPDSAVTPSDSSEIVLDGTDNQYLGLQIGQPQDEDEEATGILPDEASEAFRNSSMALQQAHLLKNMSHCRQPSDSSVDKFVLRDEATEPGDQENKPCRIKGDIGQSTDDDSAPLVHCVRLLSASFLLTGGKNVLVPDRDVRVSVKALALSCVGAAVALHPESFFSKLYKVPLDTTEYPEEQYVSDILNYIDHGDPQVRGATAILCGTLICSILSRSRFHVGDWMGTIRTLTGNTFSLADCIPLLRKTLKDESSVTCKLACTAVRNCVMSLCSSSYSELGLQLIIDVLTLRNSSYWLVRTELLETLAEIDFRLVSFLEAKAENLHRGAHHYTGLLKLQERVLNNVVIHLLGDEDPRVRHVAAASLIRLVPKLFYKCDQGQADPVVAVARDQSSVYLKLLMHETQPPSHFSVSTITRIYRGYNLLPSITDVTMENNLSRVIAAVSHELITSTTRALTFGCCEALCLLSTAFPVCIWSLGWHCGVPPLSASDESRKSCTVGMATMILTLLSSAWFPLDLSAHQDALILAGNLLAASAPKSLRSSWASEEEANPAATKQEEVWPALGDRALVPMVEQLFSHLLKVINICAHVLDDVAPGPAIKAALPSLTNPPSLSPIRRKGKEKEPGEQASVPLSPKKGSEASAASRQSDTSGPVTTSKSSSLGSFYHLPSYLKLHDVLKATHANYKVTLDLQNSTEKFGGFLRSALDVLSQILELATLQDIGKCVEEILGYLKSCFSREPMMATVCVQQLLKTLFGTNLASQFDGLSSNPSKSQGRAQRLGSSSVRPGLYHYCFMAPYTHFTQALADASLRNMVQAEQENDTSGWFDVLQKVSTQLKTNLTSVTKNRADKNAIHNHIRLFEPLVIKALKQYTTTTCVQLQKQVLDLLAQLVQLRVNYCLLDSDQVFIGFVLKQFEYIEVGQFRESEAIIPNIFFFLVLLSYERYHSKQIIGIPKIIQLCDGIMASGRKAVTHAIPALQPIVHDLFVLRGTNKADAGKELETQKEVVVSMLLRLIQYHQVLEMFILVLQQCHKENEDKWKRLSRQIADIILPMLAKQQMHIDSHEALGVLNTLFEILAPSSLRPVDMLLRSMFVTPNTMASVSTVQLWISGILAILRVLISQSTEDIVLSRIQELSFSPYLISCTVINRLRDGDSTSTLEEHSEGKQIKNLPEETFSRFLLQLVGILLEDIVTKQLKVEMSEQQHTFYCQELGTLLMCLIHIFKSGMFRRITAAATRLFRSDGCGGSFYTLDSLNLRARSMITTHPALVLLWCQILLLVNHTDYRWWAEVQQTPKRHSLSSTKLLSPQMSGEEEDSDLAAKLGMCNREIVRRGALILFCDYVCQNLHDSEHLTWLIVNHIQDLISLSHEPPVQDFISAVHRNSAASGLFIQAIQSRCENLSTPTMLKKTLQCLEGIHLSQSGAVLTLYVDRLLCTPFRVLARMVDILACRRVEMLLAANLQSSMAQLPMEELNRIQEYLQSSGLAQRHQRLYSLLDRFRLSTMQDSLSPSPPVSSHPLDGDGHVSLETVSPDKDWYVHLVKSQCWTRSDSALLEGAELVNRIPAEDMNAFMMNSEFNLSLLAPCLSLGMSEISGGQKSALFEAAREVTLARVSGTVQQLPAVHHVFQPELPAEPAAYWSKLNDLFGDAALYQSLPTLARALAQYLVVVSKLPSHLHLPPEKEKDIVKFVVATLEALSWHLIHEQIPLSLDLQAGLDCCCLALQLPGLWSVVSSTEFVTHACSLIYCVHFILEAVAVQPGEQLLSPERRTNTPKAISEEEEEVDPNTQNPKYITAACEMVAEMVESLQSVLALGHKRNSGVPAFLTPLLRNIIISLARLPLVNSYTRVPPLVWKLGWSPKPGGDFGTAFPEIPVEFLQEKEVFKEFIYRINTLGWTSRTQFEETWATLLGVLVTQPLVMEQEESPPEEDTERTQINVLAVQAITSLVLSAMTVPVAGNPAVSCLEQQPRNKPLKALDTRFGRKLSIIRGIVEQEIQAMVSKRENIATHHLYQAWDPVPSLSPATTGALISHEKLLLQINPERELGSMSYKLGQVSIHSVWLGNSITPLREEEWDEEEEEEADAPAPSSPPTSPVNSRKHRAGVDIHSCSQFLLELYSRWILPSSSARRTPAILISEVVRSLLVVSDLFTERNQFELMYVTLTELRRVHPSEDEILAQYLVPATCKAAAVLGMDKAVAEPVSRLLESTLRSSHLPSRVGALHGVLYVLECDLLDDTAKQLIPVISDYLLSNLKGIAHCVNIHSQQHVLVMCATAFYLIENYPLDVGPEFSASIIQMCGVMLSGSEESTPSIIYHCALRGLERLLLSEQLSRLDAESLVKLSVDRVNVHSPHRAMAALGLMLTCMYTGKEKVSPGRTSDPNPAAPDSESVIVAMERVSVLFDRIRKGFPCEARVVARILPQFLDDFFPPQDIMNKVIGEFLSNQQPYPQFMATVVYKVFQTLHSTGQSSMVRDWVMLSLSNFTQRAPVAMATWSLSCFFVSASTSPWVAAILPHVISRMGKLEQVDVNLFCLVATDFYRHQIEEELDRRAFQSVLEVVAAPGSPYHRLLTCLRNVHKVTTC
row,IC50,Structure (SMILES)
1,< 100 nM,"COc1ccc2nc(-c3ccncc3Br)sc2c1 [2-(3-bromopyridin-4-yl)-6-methoxy-1,3-benzothiazole]"
2,100 to 500 nM,"COc1ccc2nc(-c3ccncc3C#N)sc2c1 [4-(6-methoxy-1,3-benzothiazol-2-yl)pyridine-3-carbonitrile]"
3,< 100 nM,COc1ccc2oc(-c3cccc(NC(C)=O)n3)cc2c1 [N-[6-(5-methoxy-1-benzofuran-2-yl)pyridin-2-yl]acetamide]
4,100 to 500 nM,COc1ccc2nc(-c3ccncc3C#N)ccc2c1 [4-(6-methoxyquinolin-2-yl)pyridine-3-carbonitrile]
5,< 100 nM,"COc1cc2cc(-c3ccccc3C#N)oc2cn1 [2-{5-methoxyfuro[2,3-c]pyridin-2-yl}benzonitrile]"
6,< 100 nM,"COc1ncc2cc(-c3ccccc3C#N)oc2n1 [2-{2-methoxyfuro[2,3-d]pyrimidin-6-yl}benzonitrile]"
7,< 100 nM,COc1ccc2oc(-c3ncccc3C#N)cc2c1 [2-(5-methoxy-1-benzofuran-2-yl)pyridine-3-carbonitrile]
8,< 100 nM,COc1ccc2oc(-c3ccc(C#N)cn3)cc2c1 [6-(5-methoxy-1-benzofuran-2-yl)pyridine-3-carbonitrile]
9,< 100 nM,"COc1ccc2nc(-c3ccncc3F)sc2c1 [2-(3-fluoropyridin-4-yl)-6-methoxy-1,3-benzothiazole]"
10,< 100 nM,COc1ccc2oc(-c3ccncc3)c(Br)c2c1 [4-(3-bromo-5-methoxy-1-benzofuran-2-yl)pyridine]
11,< 100 nM,"COc1ccc2nc(-c3ccccc3C#N)oc2c1 [2-(6-methoxy-1,3-benzoxazol-2-yl)benzonitrile]"
12,< 100 nM,"COc1ccc2nc(-c3ccnc(C#N)c3)sc2c1 [4-(6-methoxy-1,3-benzothiazol-2-yl)pyridine-2-carbonitrile]"
13,< 100 nM,COc1ccc2oc(-c3cccc(Br)c3C#N)cc2c1 [2-bromo-6-(5-methoxy-1-benzofuran-2-yl)benzonitrile]
14,< 100 nM,"COc1ccc2nc(-c3ccncc3C#N)oc2c1 [4-(6-methoxy-1,3-benzoxazol-2-yl)pyridine-3-carbonitrile]"
15,100 to 500 nM,"COc1ccc2nc(-c3cccnc3)oc2c1 [6-methoxy-2-(pyridin-3-yl)-1,3-benzoxazole]"
16,100 to 500 nM,"CNc1cnccc1-c1nc2ccc(OC)cc2s1 [4-(6-methoxy-1,3-benzothiazol-2-yl)-N-methylpyridin-3-amine]"
17,100 to 500 nM,COc1ccc2oc(-c3ccncc3I)cc2c1 [3-iodo-4-(5-methoxy-1-benzofuran-2-yl)pyridine]
18,> 500 nM,"N#Cc1cnccc1-c1nc2ccccc2s1 [4-(1,3-benzothiazol-2-yl)pyridine-3-carbonitrile]"
19,< 100 nM,N#Cc1cnccc1-c1cc2cc(OCCF)ccc2o1 [4-[5-(2-fluoroethoxy)-1-benzofuran-2-yl]pyridine-3-carbonitrile]

row,IC50,Structure (SMILES)
1,100 to 500 nM,"Cc1cccc(-c2nc3cc(N)ccc3o2)c1 [2-(3-methylphenyl)-1,3-benzoxazol-5-amine]"
2,100 to 500 nM,COc1ccc2oc(-c3ccncc3C)cc2c1 [4-(5-methoxy-1-benzofuran-2-yl)-3-methylpyridine]
3,< 100 nM,COc1ccc2oc(-c3ccc(Br)cc3C#N)cc2c1 [5-bromo-2-(5-methoxy-1-benzofuran-2-yl)benzonitrile]
4,< 100 nM,COCCOc1ccc2oc(-c3ccncc3C#N)cc2c1 [4-[5-(2-methoxyethoxy)-1-benzofuran-2-yl]pyridine-3-carbonitrile]
5,< 100 nM,COc1ccc2oc(-c3cccc4[nH]ncc34)cc2c1 [4-(5-methoxy-1-benzofuran-2-yl)-1H-indazole]
6,100 to 500 nM,"COc1ccc2sc(-c3ccncc3C#N)nc2c1 [4-(5-methoxy-1,3-benzothiazol-2-yl)pyridine-3-carbonitrile]"
7,< 100 nM,"COc1cnc2cc(-c3ccncc3C#N)oc2c1 [4-{6-methoxyfuro[3,2-b]pyridin-2-yl}pyridine-3-carbonitrile]"
8,> 500 nM,"OCc1ccc2oc(-c3cccnc3)nc2c1 [[2-(pyridin-3-yl)-1,3-benzoxazol-5-yl]methanol]"
9,< 100 nM,"FCCOc1ccc2nc(-c3ccncc3Br)sc2c1 [2-(3-bromopyridin-4-yl)-6-(2-fluoroethoxy)-1,3-benzothiazole]"
10,< 100 nM,COCOc1ccc2oc(-c3ccncc3C#N)cc2c1 [4-[5-(methoxymethoxy)-1-benzofuran-2-yl]pyridine-3-carbonitrile]
11,> 500 nM,"COc1ccc2nc(-c3ccncc3C#N)[nH]c2c1 [4-(6-methoxy-1H-1,3-benzodiazol-2-yl)pyridine-3-carbonitrile]"
12,< 100 nM,"N#Cc1cnccc1-c1nc2ccc(C(F)(F)F)cc2s1 [4-[6-(trifluoromethyl)-1,3-benzothiazol-2-yl]pyridine-3-carbonitrile]"
13,100 to 500 nM,COc1ccc2cc(-c3ccncc3C#N)ccc2c1 [4-(6-methoxynaphthalen-2-yl)pyridine-3-carbonitrile]
14,100 to 500 nM,"COc1ccc2nc(-c3ccncc3-c3ccn[nH]3)sc2c1 [6-methoxy-2-[3-(1H-pyrazol-5-yl)pyridin-4-yl]-1,3-benzothiazole]"
15,< 100 nM,"COc1ccc2nc(-c3ccccc3C#N)sc2c1 [2-(6-methoxy-1,3-benzothiazol-2-yl)benzonitrile]"
16,< 100 nM,COc1ccc2oc(-c3cccc4cn[nH]c34)cc2c1 [7-(5-methoxy-1-benzofuran-2-yl)-1H-indazole]
17,< 100 nM,"N#Cc1ccccc1-c1cc2cc(Br)cnc2o1 [2-{5-bromofuro[2,3-b]pyridin-2-yl}benzonitrile]"
18,< 100 nM,"COc1ccc2nc(-c3ncccc3C#N)sc2c1 [2-(6-methoxy-1,3-benzothiazol-2-yl)pyridine-3-carbonitrile]"
19,100 to 500 nM,N#Cc1cnccc1-c1cc2cc(OCCO)ccc2o1 [4-[5-(2-hydroxyethoxy)-1-benzofuran-2-yl]pyridine-3-carbonitrile]

row,IC50,Structure (SMILES)
1,> 500 nM,"Nc1ccc2oc(-c3cccnc3)nc2c1 [2-(pyridin-3-yl)-1,3-benzoxazol-5-amine]"
2,< 100 nM,"CN(C)c1ccc2nc(-c3ccncc3C#N)sc2c1 [4-[6-(dimethylamino)-1,3-benzothiazol-2-yl]pyridine-3-carbonitrile]"
3,< 100 nM,"COc1ccc2nc(-c3cnccc3C#N)sc2c1 [3-(6-methoxy-1,3-benzothiazol-2-yl)pyridine-4-carbonitrile]"
4,< 100 nM,"COc1cnc2oc(-c3ccccc3C#N)cc2c1 [2-{5-methoxyfuro[2,3-b]pyridin-2-yl}benzonitrile]"
5,< 100 nM,COc1ccc2oc(-c3ccncc3)c(C#N)c2c1 [5-methoxy-2-(pyridin-4-yl)-1-benzofuran-3-carbonitrile]
6,100 to 500 nM,COc1ccc2oc(-c3cccc(CN(C)C)c3C#N)cc2c1 [2-[(dimethylamino)methyl]-6-(5-methoxy-1-benzofuran-2-yl)benzonitrile]
7,< 100 nM,"COc1ccc2nc(-c3ncccc3Br)sc2c1 [2-(3-bromopyridin-2-yl)-6-methoxy-1,3-benzothiazole]"
8,100 to 500 nM,"Oc1ccc2nc(-c3ccncc3Br)sc2c1 [2-(3-bromopyridin-4-yl)-1,3-benzothiazol-6-ol]"
9,< 100 nM,COc1ccc2oc(-c3ccncc3C#N)cc2c1 [4-(5-methoxy-1-benzofuran-2-yl)pyridine-3-carbonitrile]
10,< 100 nM,"COc1ccc2nc(-c3ccncc3NC(C)=O)sc2c1 [N-[4-(6-methoxy-1,3-benzothiazol-2-yl)pyridin-3-yl]acetamide]"
11,< 100 nM,"COc1ccc2nc(-c3ccc(C#N)cc3)sc2c1 [4-(6-methoxy-1,3-benzothiazol-2-yl)benzonitrile]"
12,< 100 nM,N#Cc1cnccc1-c1cc2cc(O)ccc2o1 [4-(5-hydroxy-1-benzofuran-2-yl)pyridine-3-carbonitrile]
13,< 100 nM,COCOc1ccc2oc(-c3cn(C)nc3C#N)cc2c1 [4-[5-(methoxymethoxy)-1-benzofuran-2-yl]-1-methyl-1H-pyrazole-3-carbonitrile]
14,> 500 nM,"Cc1cccc(-c2nc3cc(N)cnc3o2)c1 [2-(3-methylphenyl)-[1,3]oxazolo[5,4-b]pyridin-6-amine]"
15,< 100 nM,"N#CC1=C(c2cc3cc(O)ccc3o2)N2CCN=C2S1 [3-(5-hydroxy-1-benzofuran-2-yl)-5H,6H-imidazo[2,1-b][1,3]thiazole-2-carbonitrile]"
16,< 100 nM,"O=c1[nH]cc(Br)cc1-c1cc2cc(Br)cnc2o1 [5-bromo-3-{5-bromofuro[2,3-b]pyridin-2-yl}-1,2-dihydropyridin-2-one]"
17,100 to 500 nM,"COc1ccc2nc(-c3ccccc3OC)sc2c1 [6-methoxy-2-(2-methoxyphenyl)-1,3-benzothiazole]"
18,< 100 nM,COc1ccc2oc(-c3cc(CN(C)C)ccc3C#N)cc2c1 [4-[(dimethylamino)methyl]-2-(5-methoxy-1-benzofuran-2-yl)benzonitrile]
